A value given as a limit tells only on which side of the number the result lay.

We go through 1 compound from patent US10849867B2, “Methods and compositions for treating conditions associated with an abnormal inflammatory response” (First Wave Bio, Inc., priority 2015, dated 2020).

Series [1] has as its system TNBS model of ulcerative colitis. Kind of series: Murine TNBS model of ulcerative colitis, rectal versus intraperitoneal (FIG. 2). Format: in vivo.
The subject of series [2] is lamina propria T cell (CD3+). Kind of series: Cell death in lamina propria T cell from active IBD, 7-AAD staining (FIG. 1). The conditions noted are these: 10 μM for 16 hours, LPMC from IBD subjects, versus DMSO. It is filed as cell-based, human. The protocol:
Cell death in lamina propria T cell (CD3+) was determined by measuring 7-AAD staining by flow cytometry. FIG. 1. […] Cell death in lamina propria T cell (CD3+) was determined by measuring 7-AAD staining by flow cytometry.

For the next series, the system named is TNBS-induced colitis. Kind of series: Relapsing TNBS-induced colitis in mice, rectal niclosamide (Example 4). It is filed as in vivo, C57BL/6J female mice. The conditions noted are these: relative to vehicle control. The source says: Objective. […] Model. The TNBS-induced colitis is a commonly used experimental model for Inflammatory Bowel Disease (IBD). TNBS (trinitrobenzenesulfonic acid) is a chemical administered rectally in the form of an enema to mice or rats in combination with ethanol, which disrupts the mucous barrier, and induces colitis by […] proteins within the gut, causing them to become preferential targets for immune cells. The severity of TNBS-induced colitis depends largely on the dosage applied and the strain of animal used. In chronic, relapsing form of the model, animals are sensitized by escalating, intracolonic doses of TNBS. Disease is monitored in-life by weight loss. Histology of colon specimens is used to determine disease severity at study termination (Gastroenterology. 2003 December; 125(6). 1750-61; Inflamm Bowel Dis. 2006 October; 12(10):995-9.) Mouse strain and housing. C57BL/6J female mice (9-weeks old) are purchased by Jackson and are housed at a temperature ranging from 68 to 74° F. with a diurnal 12 hour light cycle in a specific pathogen-free facility in ventilated cages. Food and water is provided ad libitum. Animals are acclimated to local microbiota for 7 days before the beginning of the experiment. Cell isolation and culture procedures are as noted in Example 2. Conditioning to induce colitis. To perform the studies of relapsing hapten-induced colitis 4 escalating doses of TNBS in 50% ethanol are administered at weekly intervals to lightly anesthetized mice through a 3.5Fr catheter inserted into the rectum. The catheter tip is inserted 4 cm proximal to the anal verge, and 150 μL of fluid is slowly instilled into the colon, after which the mouse is held in a vertical position for 30 seconds per rectum at weekly intervals. […] For the clinical assessment of colitis, animal weight, diarrhea (0=absent; 1=present), rectal prolapse (0=absent; l=present) and presence of blood in the stool (0=absent; l=present) is recorded daily. […] For statistical comparisons, two-way Anova test with Bonferroni correction is calculated with […] software.

Series [3] is described as follows: Pharmacokinetics following a single rectal administration to NZW rabbits (Example 11). It is filed as in vivo, New Zealand White KBL Rabbit. The conditions noted are these: Treatment B 7.5, NZW rabbits; for concentration at 2 h / concentration at 4 h / concentration at 8 h / concentration at 24 h: male, New Zealand White KBL, rabbit, plasma, other: rectal, 7.5 mg, Niclosamide Plasma Concentrations. The source says: Following dosing, blood samples and rectal mucosa was obtained at indicated time points.

`O=C(Nc1ccc([N+](=O)[O-])cc1Cl)c1cc(Cl)ccc1O` [Niclosamide, 5-chloro-N-(2-chloro-4-nitrophenyl)-2-hydroxybenzamide]: the “efficacy in murine TNBS model of ulcerative colitis” value in series [1] (administered rectally (locally)) was “robust efficacy”; in series [1] (intraperitoneal injection (systemically)), “not by intraperitoneal injection”. Also, the “cell death in lamina propria T cell (CD3+)” value in series [2] is on record as “induces cell death”. Moreover, the colitis clinical scores result in the series on TNBS-induced colitis (daily, 1-100 mg/kg) is “dose-related decrease”. Besides, the colitis histologic scores entry in the series with TNBS-induced colitis (daily, 1-100 mg/kg) was “dose-related decrease”. Also, in the series with TNBS-induced colitis, the “doses that significantly reduce both clinical and histologic scores (p<0.05)” value is given as at least 3 mg/kg. Further, the “Niclosamide Plasma Concentrations, Mean” value in series [3] (1 h) was 3.9275 ng/mL. Also, the concentration at 2 h turned out to be 19.7 ng/mL in series [3] (Mean, 2 h); 5.19 ng/mL in series [3] (Subject 666, 2 h); 3.26 ng/mL in series [3] (Subject 667, 2 h); 50.7 ng/mL in series [3] (Subject 668, 2 h). Further, the concentration at 4 h in series [3] (Mean, 4 h) was found to be 12 ng/mL; in series [3] (Subject 668, 4 h) it was 2.21 ng/mL. The concentration at 8 h in series [3] (Mean, 8 h) stood at 4.68 ng/mL; in series [3] (Subject 666, 8 h) it was 4.73 ng/mL; in series [3] (Subject 667, 8 h) it was 4.63 ng/mL. The concentration at 24 h was found to be 1.07 ng/mL in series [3] (Mean, 24 h) and 1.07 ng/mL in series [3] (Subject 667, 24 h).
